Measurements taken from US11952610B2, “Digital microbiology” (priority 2016, dated 2024).
Values after ≈ are worked out from the molar mass of the structure shown. Read-outs that look alike come from different tables or passages of the source.

Columns and labels:
[1] = test system: MRSA ATCC 49476; assay: Droplets with labeled fibrinogen, BSA +/- cefoxitin: growth and labeling; type: cell-based, Staphylococcus aureus
Experimental: (§1) Fibrinogen (Sigma Aldrich) that binds to Staphylococcus aureus (S. aureus cells express surface proteins that promote attachment to host proteins such as fibronectin) was labeled using Kit Lynx LNK174PETR (Abd Serotec). […] After incubation at 37° C. for 3 hours, the samples were read using the ZOE™ Fluorescent Cell Imager (Bio-Rad Laboratories). The tables below show growth (visible) and labeling (fluorescence) obtained for the tested strains of MSSA and MRSA.

[2] = test system: MRSA ATCC BAA 2312; assay: as above; type: cell-based, Staphylococcus aureus
Experimental: as §1

[3] = test system: MSSA ATCC 29213; assay: as above; type: cell-based, Staphylococcus aureus
Experimental: as §1

[4] = test system: MSSA ATCC 6538; assay: as above; type: cell-based, Staphylococcus aureus
Experimental: as §1

[5] = test system: Escherichia coli (ATCC®25922™); assay: Antimicrobial susceptibility testing in water-in-oil droplets, microscope reading; type: cell-based; details: for MIC: Escherichia coli, read-out: Observed MIC
Experimental: (§2) (at 30° C. for the C. albicans).

[6] = test system: E. coli ATCC®25922; details: cited from earlier work
[7] = test system: C. albicans ATCC®24433™; assay: Antifungal susceptibility testing in water-in-oil droplets, microscope reading; type: cell-based, Candida albicans
Experimental: as §2

[8] = test system: C. albicans ATCC®24433™; details: cited from earlier work
[9] = conjugate 1/200, BSA 0 + FOX 0, 3 h at 37° C.
[10] = conjugate 1/200, BSA 2.5% + FOX 0, 3 h at 37° C.
[11] = conjugate 1/200, BSA 2.5% + FOX 2 mg/L, 3 h at 37° C.
[12] = conjugate 1/200, BSA 0 + FOX 2 mg/L, 3 h at 37° C.
[13] = ATCC25922, droplets at 37° C., read after 4 and/or 6 h
[14] = droplets at 37° C., read after 4 and/or 6 h

## Fibrinogen
[1]; [9]
  Labeling (fluorescence): Fluo +++
[1]; [10]
  Labeling (fluorescence): Fluo +++
[1]; [11]
  Labeling (fluorescence): Fluo +++
[2]; [9]
  Labeling (fluorescence): BN (+)
[2]; [12]
  Labeling (fluorescence): BN (+)
[2]; [10]
  Labeling (fluorescence): Fluo +++
[2]; [11]
  Labeling (fluorescence): Fluo +++
[3]; [9]
  Labeling (fluorescence): Fluo ++
[3]; [12]
  Labeling (fluorescence): BN (+)
[3]; [10]
  Labeling (fluorescence): Fluo +++
[3]; [11]
  Labeling (fluorescence): BN (+)
[4]; [9]
  Labeling (fluorescence): Fluo +++
[4]; [12]
  Labeling (fluorescence): BN (+)
[4]; [10]
  Labeling (fluorescence): Fluo +++
[4]; [11]
  Labeling (fluorescence): BN (+)

## CCN1CCN(C(=O)N[C@@H](C(=O)N[C@@H]2C(=O)N3[C@@H]2SC(C)(C)[C@@H]3C(=O)O)c2ccccc2)C(=O)C1=O [Piperacillin]
[5]; 1 mg/L, reading time 4 h
  Growth in droplets (observation in words): Limited growth in droplets with cells forming filaments
[5]; 2 mg/L, reading time 4 h
  Growth in droplets (observation in words): No growth
[5]; [13]
  MIC: 2 mg/L (≈ 3.86 µM)
[6]
  Expected MIC (CLSI): 1 to 4 mg/L

## Gentamycin
[5]; 0.125 mg/L, reading time 4 h
  Growth in % of droplets: ~50% of the droplets
[5]; 0.25 mg/L, reading time 4 h
  Growth in % of droplets: 30-50% of droplets
[5]; 0.5 mg/L, reading time 4 h
  Growth in % of droplets: ~30% of droplets
[5]; 0.5 mg/L, reading time 6 h
  Growth in % of droplets: 30-50% of droplets
[5]; 2 mg/L, reading time 4 h
  Growth in droplets (observation in words): No growth
[5]; 2 mg/L, reading time 6 h
  Growth in droplets (observation in words): No growth
[5]; [14]
  Observed MIC: 2 mg/L
[6]
  Expected MIC (CLSI): 0.25 to 1 mg/L

## CN(C)[C@@H]1C(O)=C(C(N)=O)C(=O)[C@@]2(O)C(O)=C3C(=O)c4c(O)cccc4[C@@](C)(O)[C@H]3C[C@@H]12 [Tetracycline]
[5]; 0.25 mg/L, reading time 6 h
  Growth in % of droplets: Growth in 20-30% of
[5]; [13]
  MIC: 0.5 mg/L (≈ 1.13 µM)

## OC(Cn1cncn1)(Cn1cncn1)c1ccc(F)cc1F [Fluconazole]
[7]; 1 mg/L, reading time 6 h
  Growth in % of droplets: Growth in 15-20%
[7]; 2 mg/L, reading time 4 h
  Growth in % of droplets: Growth in 15-20%
[7]; 2 mg/L, reading time 6 h
  Growth in % of droplets: Growth in 15-20%
[7]; 4 mg/L, reading time 4 h
  Growth in % of droplets: ~15% of droplets
[7]; 4 mg/L, reading time 6 h
  Growth in % of droplets: Growth in 15-20%
[7]; 8 mg/L, reading time 4 h
  Growth in droplets (observation in words): Limited growth
[7]; 8 mg/L, reading time 6 h
  Growth in droplets (observation in words): Limited growth
[7]; 16 mg/L, reading time 4 h
  Growth in droplets (observation in words): Limited growth
[7]; 16 mg/L, reading time 6 h
  Growth in droplets (observation in words): Limited growth
[7]; 32 mg/L, reading time 4 h
  Growth in droplets (observation in words): Limited growth
[7]; 32 mg/L, reading time 6 h
  Growth in droplets (observation in words): Limited growth
[7]; 64 mg/L, reading time 4 h
  Growth in droplets (observation in words): Limited growth
[7]; 64 mg/L, reading time 6 h
  Growth in droplets (observation in words): Limited growth
[8]
  Expected MIC (CLSI): 0.25 to 1 mg/L

## Colistin
[5]; 0.125 mg/L, reading time 4 h
  Growth in % of droplets: Growth in 10-20% of
[5]; 0.25 mg/L, reading time 4 h
  Growth in droplets (observation in words): Limited growth in few
[5]; 0.25 mg/L, reading time 6 h
  Growth in % of droplets: Growth in 20-30% of
[5]; 0.5 mg/L, reading time 4 h
  Growth in droplets (observation in words): Growth in 1 droplet
[5]; 1 mg/L, reading time 6 h
  Growth in droplets (observation in words): No growth
[5]; [14]
  Observed MIC: 1 mg/L
[6]
  Expected MIC (CLSI): 0.5 to 2 mg/L

## CCn1cc(C(=O)O)c(=O)c2ccc(C)nc21 [Nalidixic acid]
[5]; 1 mg/L, reading time 6 h
  Growth in % of droplets: Growth in about 50% of
[5]; 2 mg/L, reading time 6 h
  Growth in droplets (observation in words): One or few small
[5]; 4 mg/L, reading time 4 h
  Growth in droplets (observation in words): One or few small
[5]; 4 mg/L, reading time 6 h
  Growth in droplets (observation in words): No growth
[5]; ATCC25922, 6 h
  MIC: 4 mg/L (≈ 17.2 µM)
[6]
  Expected MIC (CLSI): 1 to 4 mg/L
